What was measured:
crabgrass, large = experiment: Test C preemergence; format: in vivo, Digitaria sanguinalis; settings: for Plant response rating (scale of 0 to 100), Crabgrass, Large: 250 g ai/ha
Procedure, shortened: (§1)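 Greenhouse pot test: preemergence application onto freshly seeded loam/sand mix, postemergence application onto seedlings (1–4 leaves, 2–18 cm) in peat-vermiculite substrate. Responses scored visually 13 to 15 days later relative to controls, where 0 means no effect and 100 means complete control; a dash indicates no result.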

foxtail, giant [1] = experiment: Test A postemergence; format: in vivo, Setaria faberii
Procedure, shortened: (§2)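 Greenhouse test in loam soil/sand blend; compounds formulated in non-phytotoxic solvent with surfactant, applied as preemergence directed soil spray or postemergence to plants 2–10 cm tall at one- to two-leaf stage. Injury rated visually versus untreated controls after approximately 10 days on a 0 (no effect) to 100 (complete control) scale.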

velvetleaf [2] = experiment: Test A preemergence; format: in vivo, Abutilon theophrasti; settings: preemergence
Procedure, shortened: as §2

foxtail, giant [3] = experiment: Test A preemergence; format: in vivo, Setaria faberii; settings: preemergence
Procedure, shortened: as §2

velvetleaf [4] = experiment: Test A postemergence; format: in vivo, Abutilon theophrasti
Procedure, shortened: as §2

barnyardgrass [5] = experiment: Test A preemergence; format: in vivo, Echinochloa crus-galli; settings: preemergence
Procedure, shortened: as §2

pigweed = experiment: Test C preemergence; format: in vivo, Amaranthus retroflexus; settings: for Plant response rating (scale of 0 to 100), Pigweed: 250 g ai/ha
Procedure, shortened: as §1

barnyardgrass [6] = experiment: Test B flood; format: in vivo, Echinochloa crus-galli; settings: 250 g ai/ha, visual rating on 0 to 100 scale (0 no effect, 100 complete control), 13 to 15 days
Procedure, shortened: (§3)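 Flooded-pot test: compound dosed into 3 cm of standing water above soil when plants had two leaves. Visual control ratings (0–100) versus untreated plants after 13–15 d.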

morningglory = experiment: Test C preemergence; format: in vivo, Ipomoea coccinea; settings: for Plant response rating (scale of 0 to 100), Morningglory: 250 g ai/ha
From the text: Seeds of plant species selected from blackgrass (Alopecurus myosuroides), ryegrass, Italian (Italian ryegrass, Lolium multiflorum), wheat (winter wheat, Triticum aestivum), galium (catchweed bedstraw, Galium aparine), corn (Zea mays), crabgrass, large (large crabgrass, Digitaria sanguinalis), foxtail, giant (giant foxtail, Setaria faberii), johnsongrass (Sorghum halepense), lambsquarters (Chenopodium album), morningglory (Ipomoea coccinea), nutsedge, yellow (yellow nutsedge, Cyperus esculentus), pigweed (redroot pigweed, Amaranthus retroflexus), ragweed (common ragweed, Ambrosia elation), soybean (Glycine max), barnyardgrass (Echinochloa crus-galli), oilseed rape (Brassica napus), waterhemp (common waterhemp, Amaranthus rudis), oat, wild (wild oat, Avena fatua), kochia (Kochia scoparia), Surinam grass (Brachiaria decumbens), foxtail, green (green foxtail, Setaria viridis), goosegrass (Eleusine indica), bromegrass, downy (downy bromegrass, Bromus tectorum), nightshade (eastern black nightshade, Solanum ptycanthum), cocklebur (common cocklebur, Xanthium strumarium), cupgrass, woolly (woolly cupgrass, Eriochloa villosa), bermudagrass (Cynodon dactylon), sunflower, (common oilseed sunflower, Helianthus annuus), Russian thistle (Salsola kali), and velvetleaf (Abutilon theophrasti) were planted into a blend of loam soil and sand and treated preemergence with test chemicals formulated in a non-phytotoxic solvent mixture which included a surfactant.
At the same time, plants selected from these crop and weed species and also chickweed (common chickweed, Stellaria media), canarygrass (littleseed canarygrass, Phalaris minor), and deadnettle (henbit deadnettle, Lamium amplexicaule), were planted in pots containing Redi-Earth® planting medium (Scotts Company, 14111 Scottslawn Road, Marysville, Ohio 43041) comprising spaghnum peat moss, vermiculite, wetting agent and starter nutrients and treated with postemergence applications of test chemicals formulated in the same manner. Plants ranged in height from 2 to 18 cm (1- to 4-leaf stage) for postemergence treatments. Treated plants and controls were maintained in a greenhouse for 13 to 15 days, after which time all species were compared to controls and visually evaluated. Plant response ratings, summarized in Table C, are based on a scale of 0 to 100 where 0 is no effect and 100 is complete control. A dash (-) response means no test result.

nutsedge, yellow = experiment: Test C preemergence; format: in vivo, Cyperus esculentus; settings: for Plant response rating (scale of 0 to 100), Nutsedge, Yellow: 250 g ai/ha
Procedure, shortened: as §1

sedge, umbrella = experiment: Test B flood; format: in vivo, Cyperus difformis; settings: 250 g ai/ha, visual rating on 0 to 100 scale (0 no effect, 100 complete control), 13 to 15 days
Procedure, shortened: as §3

wheat = experiment: Test A preemergence; format: in vivo, Triticum aestivum; settings: preemergence
Procedure, shortened: as §2

corn = experiment: Test A preemergence; format: in vivo, Zea mays; settings: preemergence
Procedure, shortened: as §2

barnyardgrass [7] = experiment: Test A postemergence; format: in vivo, Echinochloa crus-galli
Procedure, shortened: as §2

[8] = preemergence, 31 g ai/ha, visual rating, scale 0 to 100 (0 no effect, 100 complete control), 13 to 15 days
[9] = preemergence, 62 g ai/ha, 13 to 15 days, scale 0 to 100, 0 = no effect, 100 = complete control
[10] = preemergence, 125 g ai/ha, scale 0 to 100, 0 is no effect, 100 is complete control
[11] = Postemergence, 500 g ai/ha, visual rating after approx. 10 days, 0 to 100 scale (0 no effect, 100 complete control)
[12] = postemergence, 125 g ai/ha, about 10 days, visual rating on 0 to 100 scale (0 no effect, 100 complete control)
[13] = 125 g ai/ha, visual injury, 0 to 100 scale, approx. 10 days
[14] = 500 g ai/ha, visual injury after approx. 10 days, 0 to 100 scale (0 no effect, 100 complete control)
[15] = Preemergence, 16 g ai/ha, scale 0 to 100

SMILES | Crabgrass, Large plant response rating (crabgrass, large; [8]) | Plant response rating, Crabgrass, Large (crabgrass, large; [9]) | Crabgrass, Large plant response rating (crabgrass, large; [10]) | Foxtail, Giant plant response rating (foxtail, giant [1]; [11]) | Foxtail, Giant plant response rating (foxtail, giant [1]; [12]) | Velvetleaf plant response rating (velvetleaf [2]; [13]) | Velvetleaf plant response rating (velvetleaf [2]; [14]) | Foxtail, Giant plant response rating (foxtail, giant [3]; [13]) | Foxtail, Giant plant response rating (foxtail, giant [3]; [14]) | Velvetleaf plant response rating (velvetleaf [4]; [11]) | Velvetleaf plant response rating (velvetleaf [4]; [12]) | Barnyardgrass plant response rating (barnyardgrass [5]; [13]) | Barnyardgrass plant response rating (barnyardgrass [5]; [14]) | Pigweed plant response rating (pigweed; [8]) | Plant response rating, Pigweed (pigweed; [9]) | Pigweed plant response rating (pigweed; [10]) | Plant response rating, Barnyardgrass (barnyardgrass [6]) | Morningglory plant response rating (morningglory; [8]) | Plant response rating, Morningglory (morningglory; [9]) | Morningglory plant response rating (morningglory; [10]) | further results
CCCc1cc(C(=O)NCC)nn1Cc1ccnc(C(F)(F)F)c1 [Compound 95] | 98 | 98 | 98 | 100 | 100 | 90 | 100 | 100 | 100 | 100 | 90 | 100 | 100 | 100 | 100 | 100 | 40 | 100 | 100 | 100 | Plant response rating (scale of 0 to 100), Crabgrass, Large (crabgrass, large; Preemergence): 100; Plant response rating (scale of 0 to 100), Pigweed (pigweed; Preemergence): 100; Plant response rating (scale of 0 to 100), Morningglory (morningglory; Preemergence): 100; Plant response rating (scale of 0 to 100), Nutsedge, Yellow (nutsedge, yellow; Preemergence): 90; Nutsedge, Yellow plant response rating (nutsedge, yellow; [8]): 50; Plant response rating, Nutsedge, Yellow (nutsedge, yellow; [9]): 80; Nutsedge, Yellow plant response rating (nutsedge, yellow; [10]): 85; Plant response rating, Sedge, Umbrella (sedge, umbrella): 75; Wheat plant response rating (wheat; [13]): 70; Wheat plant response rating (wheat; [14]): 100; Corn plant response rating (corn; [13]): 50; Corn plant response rating (corn; [14]): 90; Barnyardgrass plant response rating (barnyardgrass [7]; [11]): 100; Barnyardgrass plant response rating (barnyardgrass [7]; [12]): 90
CCc1cc(C(=O)NC2CC2)nn1Cc1ccnc(OC(F)F)c1 [Compound 98] | 98 | 100 | 100 | 90 | 90 | 100 | 100 | 100 | 100 | 100 | 70 | 90 | 100 | 100 | 100 | 100 | 0 | 45 | 95 | 100 | Plant response rating (scale of 0 to 100), Crabgrass, Large (crabgrass, large; Preemergence): 100; Plant response rating (scale of 0 to 100), Pigweed (pigweed; Preemergence): 100; Plant response rating (scale of 0 to 100), Morningglory (morningglory; Preemergence): 100; Plant response rating (scale of 0 to 100), Nutsedge, Yellow (nutsedge, yellow; Preemergence): 95; Nutsedge, Yellow plant response rating (nutsedge, yellow; [8]): 30; Plant response rating, Nutsedge, Yellow (nutsedge, yellow; [9]): 75; Plant response rating, Sedge, Umbrella (sedge, umbrella): 80; Wheat plant response rating (wheat; [13]): 30; Wheat plant response rating (wheat; [14]): 90; Corn plant response rating (corn; [13]): 70; Corn plant response rating (corn; [14]): 80; Barnyardgrass plant response rating (barnyardgrass [7]; [11]): 90; Barnyardgrass plant response rating (barnyardgrass [7]; [12]): 90
CCc1cc(C(=O)NOC(C)C)nn1Cc1ccnc(C(F)(F)F)c1 [Compound 101] | 80 | 100 | 100 | 90 | 80 | 40 | 100 | 100 | 100 | 80 | 50 | 100 | 100 | 80 | 90 | 100 | 0 | 85 | 100 | 100 | Plant response rating, Crabgrass, Large (crabgrass, large; [15]): 65; Plant response rating, Pigweed (pigweed; [15]): 20; Plant response rating, Morningglory (morningglory; [15]): 40; Plant response rating, Nutsedge, Yellow (nutsedge, yellow; [15]): 5; Nutsedge, Yellow plant response rating (nutsedge, yellow; [8]): 5; Plant response rating, Nutsedge, Yellow (nutsedge, yellow; [9]): 25; Nutsedge, Yellow plant response rating (nutsedge, yellow; [10]): 75; Plant response rating, Sedge, Umbrella (sedge, umbrella): 60; Wheat plant response rating (wheat; [13]): 70; Wheat plant response rating (wheat; [14]): 100; Corn plant response rating (corn; [13]): 70; Corn plant response rating (corn; [14]): 100; Barnyardgrass plant response rating (barnyardgrass [7]; [11]): 90; Barnyardgrass plant response rating (barnyardgrass [7]; [12]): 80

From patent US20150105252A1, “SUBSTITUTED PYRAZOLES AS HERBICIDES” (E I DU PONT DE NEMOURS AND COMPANY, priority 2013, published 2015)
